What all share (format): cell-based
The target in one experiment is hA1 (Homo sapiens (Human), UniProt P30542). The experiment is described as follows: FLIPR inhibition assay in hADORA1/CHO (hA1 expressing) cells. The following applies: FLIPR calcium, adenosine stimulation. In short, it runs like this:
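CHO cells expressing human A1 were plated at 1×10^4 cells/well the day before, then loaded with FLIPR Calcium 5 dye for 60 min at 37 °C, 5% CO2. Compounds were added at several concentrations for 400 s before stimulation with […] adenosine. The calcium signal was recorded by FLIPR.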

Another experiment addresses hA2a (Homo sapiens (Human), UniProt P29274). The experiment is described as follows: cAMP inhibition assay in hA2a/CHO cells. The note with it: adenosine stimulation, read-out: cAMP & FLIPR IC50 (nM) hA2a. In short, it runs like this: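 CHO cells expressing human A2a, human A2b or mouse A2a, 5×10^3 cells/well, pre-incubated with compound 30 min at 37 °C, then stimulated with […] adenosine 30 min at 37 °C. cAMP read after 60 min room-temperature incubation with detection reagent.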

A further experiment has as its target mA2a (Mus musculus (Mouse), UniProt Q60613). The experiment is described as follows: cAMP inhibition assay in mA2a/CHO cells. The following applies: adenosine stimulation, read-out: cAMP & FLIPR IC50 (nM) mA2a. As to the method: (§1) hA2a/CHO, hA2b/CHO and mA2a/CHO (Genscript) were plated at 5×10^3 cells/well into 384-well polystyrene plates at the day of experiment. Compounds were pre-incubated with cells for 30 min at 37° C., 5% CO2. Then […] adenosine was added to the cells and incubated for 30 min at 37° C., 5% CO2. Detection reagent (CISBIO) was added and the plates were incubated for 60 min at room temperature. The signal was captured by Envision.

The next experiment has as its target hA2b (Homo sapiens (Human), UniProt P29275). The experiment is described as follows: cAMP inhibition assay in hA2b/CHO cells. The following applies: adenosine stimulation, read-out: cAMP & FLIPR IC50 (nM) hA2b. As to the method: as §1
Where [1] appears, read: hADORA1/CHO cells, read-out: cAMP & FLIPR IC50 (nM) hA1.
Where [2] appears, read: cAMP & FLIPR IC50 (nM) hA1, hADORA1/CHO cells.

Like-named read-outs stand apart in the source and are kept apart here.

Our source for the IC50 values is patent US10858365B2, “Triazolo-pyrimidine compounds and uses thereof” (Dizal (Jiangsu) Pharmaceutical Co., Ltd., priority 2018, dated 2020).

A word on the IC50: it is the midpoint of a concentration-inhibition curve.

mA2a, sequence (Q60613 whole entry): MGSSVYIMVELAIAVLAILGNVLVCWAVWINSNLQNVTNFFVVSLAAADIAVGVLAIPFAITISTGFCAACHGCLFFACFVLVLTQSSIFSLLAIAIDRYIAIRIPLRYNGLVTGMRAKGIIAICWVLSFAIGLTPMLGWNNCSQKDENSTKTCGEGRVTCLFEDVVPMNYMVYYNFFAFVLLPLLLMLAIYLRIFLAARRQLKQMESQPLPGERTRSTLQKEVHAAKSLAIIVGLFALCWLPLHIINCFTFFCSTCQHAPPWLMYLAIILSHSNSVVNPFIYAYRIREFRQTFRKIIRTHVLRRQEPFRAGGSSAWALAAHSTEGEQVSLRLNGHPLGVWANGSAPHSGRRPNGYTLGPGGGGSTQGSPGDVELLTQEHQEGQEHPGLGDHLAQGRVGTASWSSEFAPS
hA2a, sequence (P29274 whole entry): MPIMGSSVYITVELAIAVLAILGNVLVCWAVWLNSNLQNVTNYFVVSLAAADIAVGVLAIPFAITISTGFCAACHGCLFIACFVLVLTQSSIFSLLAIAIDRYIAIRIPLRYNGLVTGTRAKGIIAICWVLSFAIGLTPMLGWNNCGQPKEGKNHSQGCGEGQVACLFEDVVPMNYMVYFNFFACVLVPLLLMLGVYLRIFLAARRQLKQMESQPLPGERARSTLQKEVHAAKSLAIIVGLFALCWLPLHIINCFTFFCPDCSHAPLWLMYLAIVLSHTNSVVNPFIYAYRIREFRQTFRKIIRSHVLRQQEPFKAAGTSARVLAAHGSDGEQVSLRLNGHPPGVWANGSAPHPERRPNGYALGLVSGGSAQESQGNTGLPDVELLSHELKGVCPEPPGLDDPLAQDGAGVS
hA2b, sequence (P29275 whole entry): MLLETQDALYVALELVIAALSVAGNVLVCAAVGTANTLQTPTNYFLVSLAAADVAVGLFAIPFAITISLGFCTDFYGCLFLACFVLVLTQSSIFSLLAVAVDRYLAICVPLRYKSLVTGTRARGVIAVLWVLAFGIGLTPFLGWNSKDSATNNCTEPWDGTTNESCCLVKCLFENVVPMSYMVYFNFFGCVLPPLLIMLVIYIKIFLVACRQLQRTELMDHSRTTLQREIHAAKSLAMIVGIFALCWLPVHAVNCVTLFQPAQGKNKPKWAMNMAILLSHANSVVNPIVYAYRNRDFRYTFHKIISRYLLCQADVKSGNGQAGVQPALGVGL
hA1, sequence (P30542 whole entry): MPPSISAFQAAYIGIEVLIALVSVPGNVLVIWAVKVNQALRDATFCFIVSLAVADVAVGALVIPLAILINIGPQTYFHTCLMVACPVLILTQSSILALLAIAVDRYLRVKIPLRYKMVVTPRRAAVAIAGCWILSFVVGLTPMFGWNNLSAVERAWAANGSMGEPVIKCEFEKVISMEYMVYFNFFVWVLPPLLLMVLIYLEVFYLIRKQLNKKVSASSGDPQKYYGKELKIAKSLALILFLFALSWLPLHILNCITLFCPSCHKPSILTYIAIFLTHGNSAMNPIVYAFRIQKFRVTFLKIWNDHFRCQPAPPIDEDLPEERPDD

In the case of `Nc1nc(-c2ccc(F)cc2)c(-c2ccc(=O)n(C3CCOC3)c2)c2nc(Cc3c(F)cccc3F)nn12` (centres unmarked) [Example 23, 5-(5-amino-2-(2,6-difluorobenzyl)-7-(4-fluorophenyl)-[1,2,4]triazolo[1,5-c]pyrimidin-8-yl)-1-(tetrahydrofuran-3-yl)pyridin-2(1H)-one], the IC50 was determined as 26 nM on hA1 (setting [1]), 7.7 nM at hA2a, 2.9 nM on mA2a and 2060 nM at hA2b.
In the same order, the values of `Cn1cc(-c2c(-c3ccc(F)cc3)nc(N)n3nc(Cc4nccs4)nc23)ccc1=O` [Example 42, 5-[5-amino-7-(4-fluorophenyl)-2-[(1,3-thiazol-2-yl)methyl]-[1,2,4]triazolo[1,5-c]pyrimidin-8-yl]-1-methyl-1,2-dihydropyridin-2-one] are 6.6 nM, 7.9 nM, 13 nM and 206 nM.
In the same order, the values of `Cn1cc(-c2c(-c3ccccn3)nc(N)n3nc(Cc4c(F)cccc4F)nc23)ccc1=O` [Example 92, 5-[5-amino-2-[(2,6-difluorophenyl)methyl]-7-(pyridin-2-yl)-[1,2,4]triazolo[1,5-c]pyrimidin-8-yl]-1-methyl-1,2-dihydropyridin-2-one] are 13 nM, 8 nM, 11 nM and 680 nM.
Consider `Nc1nc(-c2ccc(F)cc2)c(-c2ccc3nccn3c2)c2nc(Cc3ncccc3OC(F)F)nn12` [Example 73], for which the IC50 was found to be 11 nM at hA1 (setting [2]), 0.1 nM at hA2a, 0.4 nM at mA2a and 4.8 nM at hA2b.
With `Nc1nc(-c2ccc(F)cc2)c(-c2ccc(=O)n(CCO)c2)c2nc(Cc3ncccc3F)nn12` [Example 95, 5-(5-amino-7-(4-fluorophenyl)-2-((3-fluoropyridin-2-yl)methyl)-[1,2,4]triazolo[1,5-c]pyrimidin-8-yl)-l-(2-hydroxyethyl)pyridin-2(1H)-one], the IC50 is 27 nM on hA1 (setting [1]), 3.7 nM at hA2a, 8.9 nM on mA2a and 241 nM at hA2b.
For `Cc1cnc2ccc(-c3c(-c4ccc(F)cc4)nc(N)n4nc(C[C@@H]5CCCN5C)nc34)cn12` [Example 122, (S)-7-(4-fluorophenyl)-8-(3-methylimidazo[1,2-a]pyridin-6-yl)-2-((l-methylpyrrolidin-2-yl)methyl)-[1,2,4]triazolo[1,5-c]pyrimidin-5-amine], in that order: 67.7 nM, 0.3 nM, 2.6 nM and 93.5 nM.
`Nc1nc(-c2ncco2)c(-c2ccc3nccn3c2)c2nc(Cc3ncccc3OC(F)F)nn12` [Example 74, 2-((3-(difluoromethoxy)pyridin-2-yl)methyI)-8-(imidazo[1,2-a]pyridin-6-yl)-7-(oxazol-2-yl)-[1,2, 4]triazolo[1,5-c]pyrimidin-5-amine]: the IC50 on hA1 (setting [2]) was determined as 11 nM; at hA2a, 0.8 nM; at mA2a, 1.2 nM; on hA2b, 14 nM.
Consider `Cn1cc(-c2c(-c3ccc(C#N)cc3)nc(N)n3nc(Cc4ncccc4F)nc23)ccc1=O` [Example 57, 4-(5-amino-2-((3-fluoropyridin-2-yl)methyl)-8-(1-methyl-6-oxo-1,6-dihydropyridin-3-yl)-[1,2,4]triazolo[l,5-c]pyrimidin-7-yl)benzonitrile], for which the IC50 on hA1 (setting [1]) worked out at 76 nM; on hA2a, 120 nM; at mA2a it was 219 nM; at hA2b, 399 nM.
Take `Nc1cc(-c2c(-c3ccc(F)cc3)nc(N)n3nc(Cc4ncccc4F)nc23)ccn1` [Example 38, 8-(2-aminopyridin-4-yl)-7-(4-fluorophenyl)-2-((3-fIuoropyridin-2-yl)methyl)-[1,2,4]triazolo[1,5-c]pyrmidin-5-amine]: the IC50 is 8.6 nM at hA1 (setting [1]), 41 nM on hA2a, 263 nM on mA2a and 38 nM on hA2b.
For `Cc1cnc2ccc(-c3c(N4CCCC4)nc(N)n4nc(Cc5ncccc5F)nc34)cn12` [Example 101, 2-((3*fluoropyridin-2-yl)methyl)-8-(3-methylimidazo[1,2-a]pyridin-6-yl)-7-(pyrrolidin-1-yl)-[1,2, 4]triazolo[l,5-c]pyrimidin-5-amine], in that order: 6.6 nM, 8.2 nM, 58.1 nM and 203 nM.
Turning to `Cn1cc(-c2c(-c3nccs3)nc(N)n3nc(Cc4c(F)cccc4F)nc23)ccc1=O` [Example 44, 5-(5-amino-2-(2,6-difluorobenzyl)-7-(thiazol-2-yl)-[1,2,4]triazolo[1,5-c]pyrimidin-8-yl)-l-methyl pyridin-2(lH)-one], the IC50 worked out at 13 nM at hA1 (setting [1]), 4.3 nM on hA2a, 5.9 nM on mA2a and 97 nM at hA2b.
Turning to `Cc1cnc2ccc(-c3c(-c4ncco4)nc(N)n4nc(CC5CCOC5)nc34)cn12` (single isomer, unassigned) [Example 107-2, 8-(3-methylimidazo[1,2-a]pyridin-6-yl)-7-(oxazol-2-yl)-2-((tetrahydrofuran-3-yl)methyl)-[1,2,4]triazolo[1,5-f]pyrimidin-5-amine], the IC50 on hA1 (setting [1]) came to 34.5 nM; on hA2a, 0.5 nM; at mA2a, 27.7 nM; on hA2b, 473 nM.
Regarding `Cc1cc(-c2c(-c3ncco3)nc(N)n3nc(Cc4c(F)cccc4F)nc23)cc(C)n1` [Example 33, 2-[(2,6-difluorophenyl)methyl]-8-(2,6-dimethylpyridin-4-yl)-7-(1,3-oxazol-2-yl)-[1,2,4]triazolo[1,5-c]pyrimidin-5-amine], the IC50 on hA1 (setting [1]) worked out at 6940 nM; at hA2a it was 18 nM; on mA2a, 109 nM; on hA2b it was 10000 nM.
In the same order, the values of `Cc1cc(-c2c(-c3ccc(F)cc3)nc(N)n3nc(Cc4cccc(Cl)n4)nc23)ccn1` [Example 15, 2-[(6-chloropyridin-2-yl)methyl]-7-(4-fluorophenyl)-8-(2-methylpyridin-4-yl)-[1,2,4]triazolo[1,5-c]pyrimidin-5-amine] are 27 nM, 46 nM, 88 nM and 582 nM.
`Cc1cnc2ccc(-c3c(-c4ncco4)nc(N)n4nc(Cc5ncccc5F)nc34)cn12` [Example 99, 2-((3-fluoropyridin-2-yl)methyl)-8-(3-methylimidazo[l,2-a]pyridin-6-yl)-7-(oxazol-2-yl)-[l,2,4] triazolo[l,5-c]pyrimidin-5-amine]: the IC50 came out at 3.5 nM on hA1 (setting [1]), 0.5 nM at hA2a, 0.8 nM on mA2a and 21 nM on hA2b.
For `Nc1nc(-c2ccc(F)cc2)c(-c2ccc3ncccc3c2)c2nc(Cc3ncccc3F)nn12` [Example 89, 7-(4-fluorophenyl)-2-[(3-fluoropyridin-2-yl)methyl]-8-(quinolin-6-yl)-[1,2,4]triazolo[1,5-c]pyrimidin-5-amine], the IC50 on hA1 (setting [1]) was 132 nM; on hA2a, 0.4 nM; on mA2a, 1.3 nM; at hA2b, 82 nM.
For `Cc1cnc2ccc(-c3c(N4CCCC4)nc(N)n4nc(Cc5c(F)cccc5F)nc34)cn12` [Example 123, 2-(2,6-difluorobenzyl)-8-(3-methylimidazo[l,2-a]pyridin-6-yl)-7-(pyrrolidin-1-yl)-[1,2,4]triazolo [1,5-c]pyrimidin-5-amine], in that order: 42.4 nM, 0.4 nM, 16.5 nM and 80.5 nM.
Regarding `Cc1cc(-c2c(-c3ccc(F)cc3)nc(N)n3nc(Cc4ncccc4F)nc23)cn(C)c1=O` [Example 29, 5-(5-amino-7-(4-fluorophenyl)-2-((3-fluoropyridin-2-yl)methyl)-[1,2,4]triazolo[1,5-c]pyrimidin-8-yl)-l,3-dimethylpyridin-2(1H)-one], the IC50 stood at 4.3 nM on hA1 (setting [1]), 3.8 nM at hA2a, 5.1 nM at mA2a and 91 nM on hA2b.
In the case of `Nc1nc(-c2ccc(F)cc2)c(-c2ccc(=O)n(C3CS(=O)(=O)C3)c2)c2nc(Cc3c(F)cccc3F)nn12` [Example 60, 5-(5-amino-2-(2,6-difluorobenzyl)-7-(4-fluorophenyl)-[1,2,4]triazolo[1,5-c]pyrimidin-8-yl)-1-(1,1-dioxidothietan-3-yl)pyridin-2(1H)-one], the half-maximal inhibitory concentration (IC50) came to 40 nM on hA1 (setting [1]), 56 nM at hA2a, 16 nM on mA2a and 3300 nM on hA2b.
For `Nc1nc(-c2ccc(F)cc2)c(-c2ccnc(C(F)(F)F)c2)c2nc(Cc3c(F)cccc3F)nn12` [Example 4, 2-[(2,6-difluorophenyl)methyl]-7-(4-fluorophenyl)-8-[2-(trifluoromethyl)pyridin-4-yl]-[1,2,4]triazolo[1,5-c]pyrimidin-5-amine], in that order: 511 nM, 52 nM, 24 nM and 254 nM.
